Measurements reported in patent US8821927B2, “Pharmaceutical composition” (SmithKline Beecham (Cork) Limited, priority 2005, dated 2014).

Experiment: solubility in aqueous media
Type: physicochemical
Details: over the physiologically relevant pH range
Source text: Of particular interest is N-{3-Chloro-4-[(3-fluorobenzyl)oxy]phenyl}-6-[5-({[2-(methanesulphonyl)ethyl]amino}methyl)-2-furyl]-4-quinazolinamine ditosylate monohydrate.

CS(=O)(=O)CCNCc1ccc(-c2ccc3ncnc(Nc4ccc(OCc5cccc(F)c5)c(Cl)c4)c3c2)o1 [GW572016, N-{3-Chloro-4-[(3-fluorobenzyl)oxy]phenyl}-6-[5-({[2-(methanesulphonyl)ethyl]amino}methyl)-2-furyl]-4-quinazolinamine]
solubility in aqueous media: poorly soluble
